# Laboratory results published in ChEMBL document CHEMBL5214974, “The design of protozoan phosphoribosyltransferase inhibitors containing non-charged phosphate mimic residues” (Bioorg Med Chem, 2022).
# Assay: Inhibition of N-terminal His6-tagged Trypanosoma cruzi HGPRT isoform C expressed in Escherichia coli C43(DE3) cells assessed as inhibition of IMP formation using hypoxanthine as substrate by spectrophotometric assay
row,Compound,Ki [µM]
1,O=C1CN(C[C@@H](CO)NCc2c[nH]c3c(O)ncnc23)S(=O)(=O)N1,> 130
2,O=C1CN(CC[C@@H](CO)NCc2c[nH]c3c(O)nc(O)nc23)S(=O)(=O)N1,> 130
3,NS(=O)(=O)NC[C@@H](CO)NCc1c[nH]c2c(O)ncnc12,> 130
4,O=c1[nH]cnc2c(CN[C@H](CO)CCP(=O)(O)O)c[nH]c12,0.011
5,O=C1CN(C[C@@H](CO)NCc2c[nH]c3c(O)nc(O)nc23)S(=O)(=O)N1,> 130
6,O=c1c(O)c(NC[C@@H](CO)NCc2c[nH]c3c(O)ncnc23)c1=O,> 130
7,Nc1nc(O)c2[nH]cc(CN[C@H](CO)CCP(=O)(O)O)c2n1,0.03
8,NS(=O)(=O)NC[C@@H](CO)NCc1c[nH]c2c(O)nc(O)nc12,> 130
9,O=C1CN(CC[C@@H](CO)NCc2c[nH]c3c(O)ncnc23)S(=O)(=O)N1,> 130
10,O=c1c(O)c(NCC[C@@H](CO)NCc2c[nH]c3c(O)ncnc23)c1=O,> 130
11,O=c1cc([C@@H](CO)NCc2c[nH]c3c(O)ncnc23)o[nH]1,> 130
12,O=P(O)(O)CC[C@@H](CO)NCc1c[nH]c2c(O)nc(O)nc12,18
13,O=C1N[C@@H]([C@@H](CO)NCc2c[nH]c3c(O)ncnc23)CO1,> 130

# Assay: Inhibition of N-terminal His6-tagged Trypanosoma cruzi HGXPRT isoform B expressed in Escherichia coli BL21(DE3) cells assessed as inhibition of IMP formation using hypoxanthine as substrate by spectrophotometric assay
row,Compound,Ki [µM]
1,O=C1CN(C[C@@H](CO)NCc2c[nH]c3c(O)ncnc23)S(=O)(=O)N1,> 140
2,O=C1CN(CC[C@@H](CO)NCc2c[nH]c3c(O)nc(O)nc23)S(=O)(=O)N1,> 140
3,NS(=O)(=O)NC[C@@H](CO)NCc1c[nH]c2c(O)ncnc12,> 140
4,O=C1CN(C[C@@H](CO)NCc2c[nH]c3c(O)nc(O)nc23)S(=O)(=O)N1,> 140
5,O=c1c(O)c(NC[C@@H](CO)NCc2c[nH]c3c(O)ncnc23)c1=O,> 140
6,NS(=O)(=O)NC[C@@H](CO)NCc1c[nH]c2c(O)nc(O)nc12,> 140
7,O=C1CN(CC[C@@H](CO)NCc2c[nH]c3c(O)ncnc23)S(=O)(=O)N1,> 140
8,O=c1c(O)c(NCC[C@@H](CO)NCc2c[nH]c3c(O)ncnc23)c1=O,> 140
9,O=c1cc([C@@H](CO)NCc2c[nH]c3c(O)ncnc23)o[nH]1,> 140
10,O=C1N[C@@H]([C@@H](CO)NCc2c[nH]c3c(O)ncnc23)CO1,> 140

# Assay: Inhibition of N-terminal His6-tagged HGXPRT expressed in Escherichia coli BL21 cells assessed as reduction in NADH absorbance using hypoxanthine as substrate by IMPDH coupled assay
# Design: species or system Plasmodium falciparum
row,Compound,Ki [µM]
1,O=C1CN(C[C@@H](CO)NCc2c[nH]c3c(O)ncnc23)S(=O)(=O)N1,> 20
2,O=C1CN(CC[C@@H](CO)NCc2c[nH]c3c(O)nc(O)nc23)S(=O)(=O)N1,> 20
3,NS(=O)(=O)NC[C@@H](CO)NCc1c[nH]c2c(O)ncnc12,> 20
4,O=c1[nH]cnc2c(CN[C@H](CO)CCP(=O)(O)O)c[nH]c12,0.00065
5,O=C1CN(C[C@@H](CO)NCc2c[nH]c3c(O)nc(O)nc23)S(=O)(=O)N1,> 20
6,O=c1c(O)c(NC[C@@H](CO)NCc2c[nH]c3c(O)ncnc23)c1=O,> 20
7,Nc1nc(O)c2[nH]cc(CN[C@H](CO)CCP(=O)(O)O)c2n1,0.0005
8,NS(=O)(=O)NC[C@@H](CO)NCc1c[nH]c2c(O)nc(O)nc12,> 20
9,O=C1CN(CC[C@@H](CO)NCc2c[nH]c3c(O)ncnc23)S(=O)(=O)N1,> 20
10,O=c1c(O)c(NCC[C@@H](CO)NCc2c[nH]c3c(O)ncnc23)c1=O,> 20
11,O=c1cc([C@@H](CO)NCc2c[nH]c3c(O)ncnc23)o[nH]1,> 20
12,O=P(O)(O)CC[C@@H](CO)NCc1c[nH]c2c(O)nc(O)nc12,8
13,O=C1N[C@@H]([C@@H](CO)NCc2c[nH]c3c(O)ncnc23)CO1,> 20
